In paper PMC10569036:

Test: shake flask on a mixture of 185; loss from the water phase only; LC-Orbitrap peak areas
Conditions: room

| Structure (SMILES) | log partition 1-octanol / HPLC water, unbuffered, traces of methanol / DMSO [log10] | log partition butyl acetate / HPLC water, unbuffered, traces of methanol / DMSO [log10] | log partition chloroform / HPLC water, unbuffered, traces of methanol / DMSO [log10] | log partition cyclohexane / HPLC water, unbuffered, traces of methanol / DMSO [log10] | log partition dichloromethane / HPLC water, unbuffered, traces of methanol / DMSO [log10] | log partition n-hexane / HPLC water, unbuffered, traces of methanol / DMSO [log10] | log partition n-octane / HPLC water, unbuffered, traces of methanol / DMSO [log10] | log partition n-undecane / HPLC water, unbuffered, traces of methanol / DMSO [log10] | log partition oleylalcohol / HPLC water, unbuffered, traces of methanol / DMSO [log10] | log partition toluene / HPLC water, unbuffered, traces of methanol / DMSO [log10] |
| --- | --- | --- | --- | --- | --- | --- | --- | --- | --- | --- |
| CC(C)(C)c1ccc(O)c(O)c1 | 0.06578 | -0.6544 | 0.08964 | -0.4267 | -0.4317 | -0.4698 | -0.4633 | -0.5006 | -0.3469 | -0.3594 |
| CC(=O)Oc1ccc(C(C)=O)cc1 | 0.8444 | 0.4506 | 0.8919 | -0.4431 | 0.1616 | -0.7051 | -0.2813 | -0.7594 | 0.2271 | -0.3508 |
| CC(=O)c1ccc2ccccc2c1 | 0.3821 | -0.9282 | -0.4983 | -0.222 | -0.6955 | 0.5227 | 0.6442 | 0.226 | -0.06645 | -0.371 |
| Cc1cc(SCc2sc(-c3ccc(C(F)(F)F)c(F)c3)nc2C)ccc1OCC(=O)O | -0.1342 | 0.8792 | 0.4425 | -1.06 | 0.6672 | -1.28 | -0.8266 | -1.326 | 0.4514 | -0.01784 |
| CC(C)c1cccc(O)c1 | -0.1403 | -0.382 | 0.06183 | -0.6197 | -0.09834 | -0.5466 | -0.6932 | -0.7318 | -0.144 | -0.5154 |
| CCCCc1ccc(O)cc1 | -0.1262 | -0.005316 | -0.1217 | -0.5302 | 0.2438 | -0.849 | -0.6939 | -0.8247 | -0.3004 | -0.3739 |
| CCCN(CCC)c1c([N+](=O)[O-])cc(C(C)C)cc1[N+](=O)[O-] | 1.667 | 0.7238 | 0.1749 | -0.3058 | -0.415 | 0.4636 | -0.4473 | -0.3356 | 0.7657 | 0.0275 |
| CCCCNC(=S)NCCCC | 1.103 | 0.744 | 0.6525 | -0.1972 | 0.6427 | -0.2041 | 0.07134 | 0.1833 | 0.9527 | 0.4176 |
| O=C(OC1CCCCC1)c1ccccc1C(=O)OC1CCCCC1 | 0.6596 | 0.2225 | 0.1245 | -0.9365 | 0.1411 | -0.6432 | -1.045 | -0.8058 | -0.79 | -1.067 |
| C=C(C)C(=O)OCCOCCOC(=O)C(=C)C | 0.2475 | -0.01795 | 0.3491 | -0.1638 | 0.4156 | -0.1437 | -0.3242 | -0.3846 | 0.1237 | -0.03291 |
| N#CC(c1ccccc1)c1ccccc1 | -0.3597 | 0.2978 | -0.002518 | -0.2823 | 0.1658 | -0.257 | -0.2917 | -0.816 | 0.1292 | 0.1711 |
| CCCCC(CC)COC(=O)c1ccccc1C(=O)O (centres unmarked) | -0.191 | -0.07834 | 0.168 | -0.8356 | 0.3352 | -1.06 | -1.182 | -1.177 | -0.5168 | -0.2474 |
| Nc1ccc(/N=N/c2ccccc2)cc1 | 1.65 | 1.2 | 1.001 | 1.333 | 1.434 | 1.192 | 1.439 | 1.239 | 1.015 | 0.9966 |
| c1ccc(CCCc2ccncc2)cc1 | 0.08604 | -0.4137 | -0.0585 | -0.2421 | 0.1807 | -0.1192 | -0.1298 | -0.4578 | -0.2233 | -0.2508 |
